29 compounds from US20240101531A1, “PYRIDINAMINE DERIVATIVES AND THEIR USE AS POTASSIUM CHANNEL MODULATORS” (Xenon Pharmaceuticals Inc., priority 2022, published 2024) can be followed below.

This test has as its target human KV7.2/KV7.3 (Homo sapiens (Human), UniProt O43525+O43526). As to the kind of experiment: Potassium flux assay (IPG-2 AM dye). Type of test: cell-based. The settings on record: TREX HEK 293 or HEK 293 cells expressing human KV7.2/KV7.3; arithmetic mean values. The method, boiled down:
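EC50 from 16 concentrations (2-fold dilutions, top 30 μM), scaled between DMSO baseline and a known KV7.x modulator maximum. Signal is IPG-2 AM fluorescence (ex 530/em 558 nm) after 10 mM KCl challenge buffer addition, following 20 min room-temperature compound exposure of HEK 293 or TREX HEK 293 cells stably expressing human KV7.2/KV7.3.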

By EC50 is commonly meant the midpoint of the concentration-response curve.

Each structure is given as a SMILES string. Where a name gives a salt, the structure may show the parent alone.

As for `Clc1ccc(Nc2nccc3cc(OC4CCN(Cc5ccccc5)CC4)ccc23)cn1` [Example 90, 6-((1-benzylpiperidin-4-yl)oxy)-N-(6-chloropyridin-3-yl)isoquinolin-1-amine trifluoroacetate], the concentration for a half-maximal effect (EC50) was in the range of 1 to 10 µM.

Take `CC(Oc1ccc2c(Nc3ccc(Cl)nc3)nccc2c1)C1(F)CC1` (centres unmarked) [Example 91, N-(6-chloropyridin-3-yl)-6-(1-(1-fluorocyclopropyl)ethoxy)isoquinolin-1-amine]: the EC50 was less than 1 µM.

As to `C[Si](C)(C)CCOCN(c1ccc(Cl)nc1)c1nccc2cc(F)ccc12` [Example 92, N-(6-chloropyridin-3-yl)-6-fluoro-N-((2-(trimethylsilyl)ethoxy)-methyl)isoquinolin-1-amine], the concentration giving a half-maximal response (EC50) lay in the range of 1 to 10 µM.

`FC1(F)CCC(Oc2ccc3c(Nc4ccc(Cl)nc4)nccc3c2)CC1` [Example 93, N-(6-chloropyridin-3-yl)-6-((4,4-difluorocyclohexyl)oxy)isoquinolin-1-amine]: the EC50 is less than 1 µM.

For `Clc1ccc(Nc2nccc3cc(OCc4cnccn4)ccc23)cn1` [Example 94, N-(6-chloropyridin-3-yl)-6-(pyrazin-2-ylmethoxy)isoquinolin-1-amine], the half-maximal effective concentration (EC50) lay in the range of 10 to 30 µM.

Consider `O[C@H]1C[C@H](Oc2ccc3c(Nc4ccc(Cl)nc4)nccc3c2)C1` [Example 96, (1r,3r)-3-((1-((6-chloropyridin-3-yl)amino)isoquinolin-6-yl)oxy)cyclobutan-1-ol], for which the EC50 is 1 to 10 µM.

In the case of `Clc1ccc(Nc2nccc3cc(OC4CC5CCC(C4)N5Cc4ccccc4)ccc23)cn1` (centres unmarked) [Example 97, 6-((8-benzyl-8-azabicyclo[3.2.1]octan-3-yl)oxy)-N-(6-chloropyridin-3-yl)isoquinolin-1-amine], the EC50 was 10 to 30 µM.

With `CC1(CCOc2ccc3c(Nc4ccc(Cl)nc4)nccc3c2)COC1` [Example 98, N-(6-chloropyridin-3-yl)-6-(2-(3-methyloxetan-3-yl)ethoxy)isoquinolin-1-amine], the concentration for a half-maximal effect (EC50) lay within 1 to 10 µM.

For the compound `Cn1cc(CCOc2ccc3c(Nc4ccc(Cl)nc4)nccc3c2)cn1` [Example 99, N-(6-chloropyridin-3-yl)-6-(2-(1-methyl-1H-pyrazol-4-yl)ethoxy)isoquinolin-1-amine], the half-maximal effective concentration (EC50) is 1 to 10 µM.

Turning to `O[C@H]1CC[C@@H](Oc2ccc3c(Nc4ccc(Cl)nc4)nccc3c2)CC1` [Example 100, Cis-4-((1-((6-chloropyridin-3-yl)amino)isoquinolin-6-yl)oxy)cyclohexan-1-ol], the EC50 is less than 1 µM.

`CC(C)(COc1ccc2c(Nc3ccc(Cl)nc3)nccc2c1)N1CCOCC1` [Example 101, N-(6-chloropyridin-3-yl)-6-(2-methyl-2-morpholinopropoxy)isoquinolin-1-amine]: the concentration for a half-maximal effect (EC50) was in the range of 1 to 10 µM.

As to `CO[C@H]1CC[C@@H](Oc2ccc3c(Nc4ccc(Cl)nc4)nccc3c2)CC1` [Example 104, N-(6-chloropyridin-3-yl)-6-(((1s,4s)-4-methoxycyclohexyl)oxy)isoquinolin-1-amine], the concentration giving a half-maximal response (EC50) is 10 to 30 µM.

Take `CO[C@H]1CC[C@H](Oc2ccc3c(Nc4ccc(Cl)nc4)nccc3c2)CC1` [Example 105, N-(6-chloropyridin-3-yl)-6-(((1r,4r)-4-methoxycyclohexyl)oxy)isoquinolin-1-amine]: the EC50 fell in the range of 10 to 30 µM.

With `CC(Cc1cccnc1)Oc1ccc2c(Nc3ccc(Cl)nc3)nccc2c1` (centres unmarked) [Example 106, N-(6-chloropyridin-3-yl)-6-((1-(pyridin-3-yl)propan-2-yl)oxy)isoquinolin-1-amine], the concentration giving a half-maximal response (EC50) lay within 1 to 10 µM.

`O=C1OCCN1CCOc1ccc2c(Nc3ccc(Cl)nc3)nccc2c1` [Example 107, 3-(2-((1-((6-chloropyridin-3-yl)amino)isoquinolin-6-yl)oxy)ethyl)oxazolidin-2-one]: the half-maximal effective concentration (EC50) lay within 1 to 10 µM.

Regarding `Clc1ccc(Nc2nccc3cc(O[C@@H]4CCCN(Cc5ccccc5)C4)ccc23)cn1` [Example 108, (R)-6-((1-benzylpiperidin-3-yl)oxy)-N-(6-chloropyridin-3-yl)isoquinolin-1-amine], the 50% effective concentration (EC50) fell in the range of 1 to 10 µM.

With `CC(CN1CCOCC1)Oc1ccc2c(Nc3ccc(Cl)nc3)nccc2c1` (centres unmarked) [Example 109, N-(6-chloropyridin-3-yl)-6-((1-morpholinopropan-2-yl)oxy)isoquinolin-1-amine], the EC50 was in the range of 1 to 10 µM.

For `CCOC(=O)C1(COc2ccc3c(Nc4ccc(Cl)nc4)nccc3c2)CC1` [Example 110, ethyl 1-(((1-((6-chloropyridin-3-yl)amino)isoquinolin-6-yl)oxy)methyl)cyclopropane-1-carboxylate], the EC50 lay in the range of 1 to 10 µM.

For `CC(=O)N1CC[C@H](Oc2ccc3c(Nc4ccc(Cl)nc4)nccc3c2)C1` [Example 111, (S)-1-(3-((1-((6-chloropyridin-3-yl)amino)isoquinolin-6-yl)oxy)pyrrolidin-1-yl)ethan-1-one], the EC50 was 1 to 10 µM.

As for `CC(=O)N1CC[C@@H](Oc2ccc3c(Nc4ccc(Cl)nc4)nccc3c2)C1` [Example 112, (R)-1-(3-((1-((6-chloropyridin-3-yl)amino)isoquinolin-6-yl)oxy)pyrrolidin-1-yl)ethan-1-one], the concentration giving a half-maximal response (EC50) was 1 to 10 µM.

Turning to `Clc1ccc(Nc2nccc3cc(OC4CC5(COC5)C4)ccc23)cn1` [Example 113, 6-((2-oxaspiro[3.3]heptan-6-yl)oxy)-N-(6-chloropyridin-3-yl)isoquinolin-1-amine], the EC50 is less than 1 µM.

In the case of `Clc1ccc(Nc2nccc3cc(OCC4CC5(CCO5)C4)ccc23)cn1` (centres unmarked) [Example 114, 6-((1-oxaspiro[3.3]heptan-6-yl)methoxy)-N-(6-chloropyridin-3-yl)isoquinolin-1-amine], the EC50 is less than 1 µM.

Take `Clc1ccc(Nc2nccc3cc(OCC45CCCN4CCC5)ccc23)cn1` [Example 115, N-(6-chloropyridin-3-yl)-6-((tetrahydro-1H-pyrrolizin-7a(5H)-yl)methoxy)isoquinolin-1-amine]: the EC50 was not below 30 µM.

For the compound `FC1CN(CCOc2ccc3c(Nc4ccc(Cl)nc4)nccc3c2)C1` [Example 116, N-(6-chloropyridin-3-yl)-6-(2-(3-fluoroazetidin-1-yl)ethoxy)isoquinolin-1-amine], the half-maximal effective concentration (EC50) was 1 to 10 µM.

In the case of `Clc1ccc(Nc2nccc3cc(OCc4cnn(C5COC5)c4)ccc23)cn1` [Example 117, N-(6-chloropyridin-3-yl)-6-((1-(oxetan-3-yl)-1H-pyrazol-4-yl)methoxy)isoquinolin-1-amine], the concentration giving a half-maximal response (EC50) was less than 1 µM.

Turning to `CS(=O)(=O)N1CCC(Oc2ccc3c(Nc4ccc(Cl)nc4)nccc3c2)CC1` [Example 118, N-(6-chloropyridin-3-yl)-6-((1-(methylsulfonyl)piperidin-4-yl)oxy)isoquinolin-1-amine], the half-maximal effective concentration (EC50) was 1 to 10 µM.

Take `COCCN1CCC(Oc2ccc3c(Nc4ccc(Cl)nc4)nccc3c2)CC1` [Example 119, N-(6-chloropyridin-3-yl)-6-((1-(2-methoxyethyl)piperidin-4-yl)oxy)isoquinolin-1-amine]: the EC50 lay within 10 to 30 µM.

With `Clc1ccc(Nc2nccc3cc(OCCn4cccn4)ccc23)cn1` [Example 120, 6-(2-(1H-pyrazol-1-yl)ethoxy)-N-(6-chloropyridin-3-yl)isoquinolin-1-amine], the EC50 was 10 to 30 µM.

With `O=C(C1CC1)N1CCC(Oc2ccc3c(Nc4ccc(Cl)nc4)nccc3c2)CC1` [Example 121, (4-((1-((6-chloropyridin-3-yl)amino)isoquinolin-6-yl)oxy)piperidin-1-yl)(cyclopropyl)methanone], the EC50 fell in the range of 1 to 10 µM.
